In series [1] the test system is Smn protein. The series can be described thus: Smn protein assay (HTRF) in cultured cells (SMA patient fibroblasts GM03813). It is filed as cell-based, human. To be noted: 48 hours; for EC1.5x for Smn protein expression: SMA patient fibroblast cells (GM03813), HTRF, 7-point concentration data, concentration producing 1.5 times Smn protein vs DMSO vehicle control; for maximum fold (Fold) increase of Smn protein: SMA patient fibroblast cells, 7-point concentration curve, relative to vehicle control. A digest of the protocol: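 Smn level is expressed as fold over vehicle, from blank-corrected ΔF of the 665/620 nm HTRF ratio. Readout used anti-SMN d2 and kryptate antibodies on RIPA lysates. GM03813 SMA fibroblasts had 48 h exposure at 37° C to seven 3.16-fold compound dilutions, run in triplicate.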

The test system of series [2] is SMN2 minigene mRNA (SMN2-A minigene construct). The series can be described thus: SMN2 minigene mRNA splicing RT-qPCR assay in cultured cells. To be noted: Homo sapiens, HEK293-H; HEK293H cells stably transfected with SMN2-A minigene, 24 hours, 7-point concentration data; concentration giving 1.5-fold SMN2 full length mRNA relative to vehicle-treated cells; read-out: EC1.5x for production of full length SMN2 mRNA. Format: cell-based, human. The procedure, abridged: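 Full-length SMN2 minigene mRNA, measured by exon 7/luciferase-specific RT-qPCR that excludes endogenous SMN1/SMN2, was normalized to GAPDH and expressed relative to vehicle-treated cells via modified ΔΔCt. Stably transfected HEK293H cells received compound (7-point, 3.16-fold series, duplicates) for 24 h at 37 °C.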

Broadly, the melting point is the temperature of the solid-liquid transition. `Cc1ccc2nc(-c3cc4ccc(N5C[C@H](C)NC[C@H]5C)nc4oc3=O)cn2c1` [Cpd 87, 7-[(2R,5S)-2,5-dimethylpiperazin-1-yl]-3-(6-methylimidazo[1,2-a]pyridin-2-yl)-2H-pyrano[2,3-b]pyridin-2-one]: the melting point fell in the range of 225 to 229 °C. In series [1], the “EC1.5x for Smn protein expression” value is listed as “**** (an EC1.5×≦0.3 μM is indicated by four stars (****))” and the “maximum fold (Fold) increase of Smn protein” value (“maximum fold (Fold) increase” below) was “***** (a fold increase >1.65 is indicated by five stars (*****))”. In series [2], the EC (1.5-fold) lay within 0.1 to 0.3 µM.

Turning to `Cc1ccc2nc(-c3cc4ccc(N5C[C@@H]6C[C@H]5CN6C)nc4oc3=O)cn2c1` [Cpd 125, 7-[(1S,4S)-5-methyl-2,5-diazabicyclo[2.2.1]hept-2-yl]-3-(6-methylimidazo[1,2-a]pyridin-2-yl)-2H-pyrano[2,3-b]pyridin-2-one], the melting point lay in the range of 211 to 213 °C. For the same molecule, in series [1], the “EC1.5x for Smn protein expression” value was “**** (an EC1.5×≦0.3 μM is indicated by four stars (****))” and the “maximum fold (Fold) increase” value is given as “***** (a fold increase >1.65 is indicated by five stars (*****))”. The EC (1.5-fold) in series [2] fell in the range of 0.1 to 0.3 µM.

In turn, `C[C@@H]1CN(c2ccc3cc(-c4cn5cccc(F)c5n4)c(=O)oc3n2)C[C@H](C)N1C` [Cpd 119, 3-(8-fluoroimidazo[1,2-a]pyridin-2-yl)-7-[(3R,5 S)-3,4,5-trimethylpiperazin-1-yl]-2H-pyrano[2,3-b]pyridin-2-one] showed a melting point of 242 to 245 °C. Also, in series [1], the “EC1.5x for Smn protein expression” value is given as “**** (an EC1.5×≦0.3 μM is indicated by four stars (****))”; the “maximum fold (Fold) increase” value is “**** (a fold increase between >1.5 and ≦1.65 is indicated by four stars (****))”. The EC (1.5-fold) in series [2] is not above 0.1 µM.

Molecule `CCN1CCCN(c2ccc3cc(-c4cn5cccc(Cl)c5n4)c(=O)oc3n2)CC1` [Cpd 141, 3-(8-chloroimidazo[1,2-a]pyridin-2-yl)-7-(4-ethyl-1,4-diazepan-1-yl)-2H-pyrano[2,3-b]pyridin-2-one] returned a melting point of 201 to 204 °C. Further, in series [1], the “EC1.5x for Smn protein expression” value is reported as “**** (an EC1.5×≦0.3 μM is indicated by four stars (****))”; the “maximum fold (Fold) increase” value was “**** (a fold increase between >1.5 and ≦1.65 is indicated by four stars (****))”. The EC (1.5-fold) in series [2] is not above 0.1 µM.

On to `CN1CCN(c2ccc3cc(-c4cn5cccc(Cl)c5n4)c(=O)oc3n2)CC1` [Cpd 111, 3-(8-chloroimidazo[1,2-a]pyridin-2-yl)-7-(4-methylpiperazin-1-yl)-2H-pyrano[2,3-b]pyridin-2-one], for which the melting point was in the range of 256 to 259 °C. Further, in series [1], the “EC1.5x for Smn protein expression” value is given as “**** (an EC1.5×≦0.3 μM is indicated by four stars (****))”; the “maximum fold (Fold) increase” value was “*** (a fold increase between >1.35 and ≦1.5 is indicated by three stars (***))”. In addition, the EC (1.5-fold) in series [2] was not above 0.1 µM.

For the molecule `Cc1cn2cc(-c3cc4ccc(N5CCCNCC5)nc4oc3=O)nc2cn1.Cl` [Cpd 104, 7-(1,4-diazepan-1-yl)-3-(6-methylimidazo[1,2-a]pyrazin-2-yl)-2H-pyrano[2,3-b]pyridin-2-one hydrochloride], the melting point lay in the range of 267 to 269 °C. Also, in series [1], the “maximum fold (Fold) increase” value is “** (a fold increase between >1.2 and ≦1.35 is indicated by two stars (**))”. Moreover, in series [2], the EC (1.5-fold) is not above 0.1 µM.

`C[C@@H]1CN(c2ccc3cc(-c4nc5c(Cl)cccc5s4)c(=O)oc3n2)C[C@H](C)N1C` [Cpd 71, 3-(4-chloro-1,3-benzothiazol-2-yl)-7-[(3R,5S)-3,4,5-trimethylpiperazin-1-yl]-2H-pyrano[2,3-b]pyridin-2-one] yielded a melting point of 286 to 288 °C. Also, in series [1], the “maximum fold (Fold) increase” value was “** (a fold increase between >1.2 and ≦1.35 is indicated by two stars (**))”. In series [2], the EC (1.5-fold) was 0.1 to 0.3 µM.

The molecule `CCN1CCN(c2ccc3cc(-c4cn5cc(C)ncc5n4)c(=O)oc3n2)C[C@@H]1C` [Cpd 143, 7-[(3S)-4-ethyl-3-methylpiperazin-1-yl]-3-(6methylimidazo-[1,2-a]pyrazin-2-yl)-2H-pyrano[2,3-b]pyridin-2-one] registered a melting point of 252 to 256 °C. Besides, in series [1], the “EC1.5x for Smn protein expression” value is “*** (an EC1.5× between >0.3 μM and ≦1 μM is indicated by three stars (***))”; the “maximum fold (Fold) increase” value is “**** (a fold increase between >1.5 and ≦1.65 is indicated by four stars (****))”. Further, the EC (1.5-fold) in series [2] is not above 0.1 µM.

Consider `CCN1CCCN(c2ccc3cc(-c4cn5cc(C)cc(F)c5n4)c(=O)oc3n2)CC1` [Cpd 138, 7-(4-ethyl-1,4-diazepan-1-yl)-3-(8-fluoro-6-methylimidazo[1,2-a]pyridin-2-yl)-2H-pyrano[2,3-b]pyridin-2-one], for which the melting point lay in the range of 195 to 200 °C. In addition, in series [1], the “EC1.5x for Smn protein expression” value is recorded as “**** (an EC1.5×≦0.3 μM is indicated by four stars (****))”; the “maximum fold (Fold) increase” value is “**** (a fold increase between >1.5 and ≦1.65 is indicated by four stars (****))”. Also, the EC (1.5-fold) in series [2] was not above 0.1 µM.

`CN1CCCN(c2ccc3cc(-c4cn5cccc(Cl)c5n4)c(=O)oc3n2)CC1` [Cpd 50, 3-(8-chloroimidazo[1,2-a]pyridin-2-yl)-7-(4-methyl-1,4-diazepan-1-yl)-2H-pyrano[2,3-b]pyridin-2-one] yielded a melting point of 245 to 246 °C. In addition, in series [1], the “EC1.5x for Smn protein expression” value is “**** (an EC1.5×≦0.3 μM is indicated by four stars (****))” and the “maximum fold (Fold) increase” value is listed as “***** (a fold increase >1.65 is indicated by five stars (*****))”. Also, the EC (1.5-fold) in series [2] is not above 0.1 µM.

Consider `C[C@@H]1CN(c2ccc3cc(-c4cn5cccnc5n4)c(=O)oc3n2)C[C@H](C)N1` [Cpd 78, 7-[(3R,5S)-3,5-dimethylpiperazin-1-yl]-3-(imidazo[1,2-a]pyrimidin-2-yl)-2H-pyrano[2,3-b]pyridin-2-one], for which the melting point is 255 to 258 °C. For the same molecule, in series [1], the “EC1.5x for Smn protein expression” value is given as “**** (an EC1.5×≦0.3 μM is indicated by four stars (****))” and the “maximum fold (Fold) increase” value is on record as “***** (a fold increase >1.65 is indicated by five stars (*****))”. The EC (1.5-fold) in series [2] was in the range of 0.1 to 0.3 µM.

In the case of `CCN1CCN(c2ccc3cc(-c4cn5cccc(F)c5n4)c(=O)oc3n2)CC1` [Cpd 132, 7-(4-ethylpiperazin-1-yl)-3-(8-fluoroimidazo[1,2-a]pyridin-2-yl)-2H-pyrano[2,3-b]pyridin-2-one], the melting point lay within 203 to 206 °C. Further, the “maximum fold (Fold) increase” value in series [1] was “** (a fold increase between >1.2 and ≦1.35 is indicated by two stars (**))”. Also, the EC (1.5-fold) in series [2] was 0.1 to 0.3 µM.

In turn, `CCN1CCN(c2ccc3cc(-c4cn5cc(C)ccc5n4)c(=O)oc3n2)CC1` [Cpd 130, 7-(4-ethylpiperazin-1-yl)-3-(6-methylimidazo[1,2-a]pyridin-2-yl)-2H-pyrano[2,3-b]pyridin-2-one] came in with a melting point of 235 to 237 °C. In addition, in series [1], the “EC1.5x for Smn protein expression” value is “* (An EC1.5× for Smn protein expression between >3 μM and ≦10 μM is indicated by one star (*))”; the “maximum fold (Fold) increase” value was “*** (a fold increase between >1.35 and ≦1.5 is indicated by three stars (***))”. Moreover, in series [2], the EC (1.5-fold) was in the range of 0.1 to 0.3 µM.

For the molecule `CN1CCCN(c2ccc3cc(-c4nc5ccccc5s4)c(=O)oc3n2)CC1` [Cpd 56, 3-(1,3-benzothiazol-2-yl)-7-(4-methyl-1,4-diazepan-1-yl)-2H-pyrano[2,3-b]pyridin-2-one], the melting point was in the range of 274 to 276 °C. For the same molecule, in series [1], the “EC1.5x for Smn protein expression” value was “* (An EC1.5× for Smn protein expression between >3 μM and ≦10 μM is indicated by one star (*))”; the “maximum fold (Fold) increase” value is “** (a fold increase between >1.2 and ≦1.35 is indicated by two stars (**))”. In series [2], the EC (1.5-fold) lay in the range of 0.1 to 0.3 µM.

In the case of `C[C@@H]1CN(c2ccc3cc(-c4cn5cccc(Cl)c5n4)c(=O)oc3n2)C[C@H](C)N1` [Cpd 77, 3-(8-chloroimidazo[1,2-a]pyridin-2-yl)-7-[(3R,5S)-3,5-dimethylpiperazin-1-yl]-2H-pyrano[2,3-b]pyridin-2-one], the melting point fell in the range of 240 to 242 °C. Besides, in series [1], the “EC1.5x for Smn protein expression” value is reported as “**** (an EC1.5×≦0.3 μM is indicated by four stars (****))” and the “maximum fold (Fold) increase” value is reported as “***** (a fold increase >1.65 is indicated by five stars (*****))”. The EC (1.5-fold) in series [2] was not above 0.1 µM.

In the case of `Cc1cc(F)c2nc(-c3cc4ccc(N5C[C@@H](C)N[C@@H](C)C5)nc4oc3=O)cn2c1` [Cpd 106, 7-[(3R,5S)-3,5-dimethylpiperazin-1-yl]-3-(8-fluoro-6-methylimidazo[1,2-a]pyridin-2-yl)-2H-pyrano[2,3-b]pyridin-2-one], the melting point was in the range of 280 to 283 °C. Moreover, in series [1], the “EC1.5x for Smn protein expression” value was “*** (an EC1.5× between >0.3 μM and ≦1 μM is indicated by three stars (***))”; the “maximum fold (Fold) increase” value was “*** (a fold increase between >1.35 and ≦1.5 is indicated by three stars (***))”. In series [2], the EC (1.5-fold) was not above 0.1 µM.

`CCN1[C@H](C)CN(c2ccc3cc(-c4cn5ccccc5n4)c(=O)oc3n2)C[C@@H]1C` [Cpd 129, 7-[(3R,5S)-4-ethyl-3,5-dimethylpiperazin-1-yl]-3-(imidazo[1,2-a]pyridin-2-yl)-2H-pyrano[2,3-b]pyridin-2-one] showed a melting point of 281 to 284 °C. In addition, in series [1], the “EC1.5x for Smn protein expression” value is recorded as “**** (an EC1.5×≦0.3 μM is indicated by four stars (****))” and the “maximum fold (Fold) increase” value is listed as “***** (a fold increase >1.65 is indicated by five stars (*****))”. The EC (1.5-fold) in series [2] is not above 0.1 µM.

These data come from patent US9371336B2, “Compounds for treating spinal muscular atrophy” (PTC Therapeutics Inc., priority 2012, dated 2016).
